Measured values as given in patent US20090069320A1, “Substituted 4-Amino-Quinazoline Compounds with Metabotropic Glutamate Receptor Regulating Activity and Uses Thereof” (Gruenenthal GmbH, priority 2006, published 2009).
Counter-ions that a name gives are not always drawn.

Target: T1, mGluR5 receptor (Sus scrofa, UniProt I3LUI7)
T1 construct: 450 μg of protein from brain homogenate with 5 nM ^3[H]-MPEP; from tissue; host or cells: pig brain halves without medulla, cerebellum and pons
Test: [3H]-MPEP mGluR5 receptor binding assay (pig brain homogenate)
Details: 5 nM [3H]-MPEP; for IC50: read-out: IC50 mGluR5 Receptor (pig) [^3H]-MPEP Bond; for inhibition at 10 µM: 10 μM compound, read-out: % Inhibition of mGluR5 Receptor (pig) [^3H]-MPEP Bond at 10 μM
Summary of the method: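 Compounds at 10 μM competed with 5 nM [3H]-MPEP for binding to pig brain membranes (450 μg protein) for 60 min at room temperature in pH 8.0 Hepes buffer. Bound radioactivity was collected on glass-fibre filters and read by β-counting, with 10 μM unlabelled MPEP giving non-specific binding.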

T1 sequence (I3LUI7 19-1212): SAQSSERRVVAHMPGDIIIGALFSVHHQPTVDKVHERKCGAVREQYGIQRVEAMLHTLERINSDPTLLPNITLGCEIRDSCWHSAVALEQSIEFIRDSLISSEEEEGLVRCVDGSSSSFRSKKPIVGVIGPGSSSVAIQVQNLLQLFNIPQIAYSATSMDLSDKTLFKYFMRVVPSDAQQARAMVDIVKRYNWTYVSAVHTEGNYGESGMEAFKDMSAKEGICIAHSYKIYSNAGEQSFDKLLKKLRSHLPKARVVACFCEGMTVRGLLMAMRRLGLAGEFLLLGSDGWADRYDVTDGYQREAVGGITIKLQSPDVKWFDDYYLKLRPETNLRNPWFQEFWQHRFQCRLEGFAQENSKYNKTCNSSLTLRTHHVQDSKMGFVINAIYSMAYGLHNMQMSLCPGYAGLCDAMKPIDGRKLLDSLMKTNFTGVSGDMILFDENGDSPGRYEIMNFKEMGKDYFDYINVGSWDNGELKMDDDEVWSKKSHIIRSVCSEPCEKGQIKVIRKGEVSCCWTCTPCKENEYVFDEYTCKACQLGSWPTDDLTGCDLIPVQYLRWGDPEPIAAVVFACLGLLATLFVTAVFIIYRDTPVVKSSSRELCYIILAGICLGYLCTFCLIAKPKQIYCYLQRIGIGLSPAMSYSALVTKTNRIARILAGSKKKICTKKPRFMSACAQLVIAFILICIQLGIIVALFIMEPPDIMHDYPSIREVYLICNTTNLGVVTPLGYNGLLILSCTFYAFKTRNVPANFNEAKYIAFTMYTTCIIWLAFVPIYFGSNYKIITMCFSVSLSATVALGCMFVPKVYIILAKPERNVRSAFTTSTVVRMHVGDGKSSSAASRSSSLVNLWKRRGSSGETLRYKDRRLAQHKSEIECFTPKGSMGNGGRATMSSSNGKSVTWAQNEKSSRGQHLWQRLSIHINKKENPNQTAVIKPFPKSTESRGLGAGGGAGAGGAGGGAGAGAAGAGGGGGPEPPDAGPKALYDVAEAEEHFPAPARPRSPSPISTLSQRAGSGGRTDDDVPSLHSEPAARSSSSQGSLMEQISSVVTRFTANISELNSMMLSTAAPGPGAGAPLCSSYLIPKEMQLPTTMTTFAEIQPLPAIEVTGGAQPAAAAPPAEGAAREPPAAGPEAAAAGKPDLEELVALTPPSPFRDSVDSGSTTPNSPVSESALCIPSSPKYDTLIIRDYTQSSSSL

SMILES	IC50 [µM]	inhibition at 10 µM [%]
O=C1C2CCCCC2C(=O)N1Cc1cccc(-c2ccc3ncnc(NC4CC4)c3c2)c1 (centres unmarked) [Example 242, 2-[3-(4-cyclopropylamino-quinazolin-6-yl)-benzyl]-hexahydro-isoindole-1,3-dione hydrochloride]	3.08	–
O=C1CC2(CCCC2)CC(=O)N1Cc1cccc(-c2ccc3ncnc(NC4CC4)c3c2)c1 [Example 243, 8-[3-(4-cyclopropylamino-quinazolin-6-yl)-benzyl]-8-aza-spiro[4.5]decane-7,9-dione; hydrochloride]	–	39
O=C(c1ccccc1)N(Cc1c(F)ccc(-c2ccc3ncnc(NC4CC4)c3c2)c1F)C1CC1 [Example 244, N-cyclopropyl-N-[3-(4-cyclopropylamino-quinazolin-6-yl)-2,6-difluoro-benzyl]-benzamide]	0.22	–
CS(=O)(=O)N(Cc1c(F)ccc(-c2ccc3ncnc(NC4CC4)c3c2)c1F)C1CC1 [Example 246, N-cyclopropyl-N-(3-(4-(cyclopropylamino)quinazolin-6-yl)-2,6-difluorobenzyl)methane sulfonamide]	0.35	–
CC(C)NC(=O)N(Cc1cccc(-c2ccc3ncnc(NC4CC4)c3c2)c1)C1CC1 [Example 247, 1-cyclopropyl-1-[3-(4-cyclopropylamino-quinazolin-6-yl)-benzyl]-3-isopropyl-urea]	7.34	–
O=C(c1cccnc1)N(Cc1cccc(-c2ccc3ncnc(NC4CC4)c3c2)c1)C1CC1 [Example 248, N-cyclopropyl-N-[3-(4-cyclopropylamino-quinazolin-6-yl)-benzyl]-nicotinamide]	3.15	–
CC(=O)N(Cc1c(F)ccc(-c2ccc3ncnc(NC4CC4)c3c2)c1F)C1CC1 [Example 249, N-cyclopropyl-N-[3-(4-cyclopropylamino-quinazolin-6-yl)-2,6-difluoro-benzyl]-acetamide]	0.14	–
CS(=O)(=O)N(Cc1cc(-c2ccc3ncnc(NC4CC4)c3c2)ccc1F)C1CC1 [Example 251, N-cyclopropyl-N-(5-(4-(cyclopropylamino)quinazolin-6-yl)-2-fluorobenzyl)methane sulfonamide]	–	30
COCC(=O)N(Cc1cccc(-c2ccc3ncnc(NC4CC4)c3c2)c1)C1CC1 [Example 252, N-cyclopropyl-N-[3-(4-cyclopropylamino-quinazolin-6-yl)-benzyl]-2-methoxy-acetamide]	0.92	–
O=C(c1ccno1)N(Cc1cccc(-c2ccc3ncnc(NC4CC4)c3c2)c1)C1CC1 [Example 253, isoxazole-5-carboxylic acid cyclopropyl-[3-(4-cyclopropylamino-quinazolin-6-yl)-benzyl]-amide]	1.31	–
O=C(c1c(F)c(F)c(F)c(F)c1F)N(Cc1cccc(-c2ccc3ncnc(NC4CC4)c3c2)c1)C1CC1 [Example 254, N-cyclopropyl-N-[3-(4-cyclopropylamino-quinazolin-6-yl)-benzyl]-2,3,4,5,6-pentafluoro-benzamide]	0.6	–
O=C(C=Cc1ccccc1)N(Cc1cccc(-c2ccc3ncnc(NC4CC4)c3c2)c1)C1CC1 [Example 255, N-cyclopropyl-N-[3-(4-cyclopropylamino-quinazolin-6-yl)-benzyl]-3-phenyl-acrylamide]	1.85	–
CCCCC(=O)N(Cc1cccc(-c2ccc3ncnc(NC4CC4)c3c2)c1)C1CC1 [Example 256, pentanoic acid cyclopropyl-[3-(4-cyclopropylamino-quinazolin-6-yl)-benzyl]-amide]	1.47	–
O=C(c1ccncc1)N(Cc1cccc(-c2ccc3ncnc(NC4CC4)c3c2)c1)C1CC1 [Example 257, N-cyclopropyl-N-[3-(4-cyclopropylamino-quinazolin-6-yl)-benzyl]-isonicotinamide]	0.74	–
COc1ccc(-c2ccc3ncnc(NC4CC4)c3c2)cc1CN(C(C)=O)C1CC1 [Example 259, N-cyclopropyl-N-[5-(4-cyclopropylamino-quinazolin-6-yl)-2-methoxy-benzyl]-acetamide]	0.29	–
O=C(CCc1ccccc1)N(Cc1cccc(-c2ccc3ncnc(NC4CC4)c3c2)c1)C1CC1 [Example 263, N-cyclopropyl-N-[3-(4-cyclopropylamino-quinazolin-6-yl)-benzyl]-3-phenyl-propionamide]	1.7	–
O=C(Cc1ccccc1)N(Cc1cccc(-c2ccc3ncnc(NC4CC4)c3c2)c1)C1CC1 [Example 264, N-cyclopropyl-N-[3-(4-cyclopropylamino-quinazolin-6-yl)-benzyl]-2-phenyl-acetamide]	1.52	–
O=C(C1CCCCC1)N(Cc1cccc(-c2ccc3ncnc(NC4CC4)c3c2)c1)C1CC1 [Example 265, N-cyclopropyl-N-(3-(4-(cyclopropylamino)quinazolin-6-yl)benzyl)cyclohexane carboxamide]	1.89	–
CC(C)(C)C(=O)N(Cc1cccc(-c2ccc3ncnc(NC4CC4)c3c2)c1)C1CC1 [Example 266, N-cyclopropyl-N-(3-(4-(cyclopropylamino)quinazolin-6-yl)benzyl)pivalamide]	1.27	–

SMILES	IC50 [µM]	inhibition at 10 µM [%]
COc1ccc(CN(C(=O)c2ccccc2)C2CC2)cc1-c1ccc2ncnc(NC3CC3)c2c1 [Example 267, N-cyclopropyl-N-(3-(4-(cyclopropylamino)quinazolin-6-yl)-4-methoxybenzyl)benzamide hydrochloride]	6.55	–
COc1ccc(CN(C(=O)c2ccccc2)C2CC2)cc1-c1ccc2ncnc(NC3CC3)c2c1 [Example 268, N-cyclopropyl-N-(3-(4-(cyclopropylamino)quinazolin-6-yl)-4-methoxybenzyl)benzamide]	5.41	–
CN(c1ncnc2ccc(-c3cccc(CN(C(=O)c4ccccn4)C4CC4)c3)cc12)C1CC1 [Example 272, N-cyclopropyl-N-(3-(4-(cyclopropyl(methyl)amino)quinazolin-6-yl)benzyl)picolinamide]	15.3	–
O=C(c1ccccc1)N(Cc1cccc(-c2ccc3ncnc(NC4CC4)c3c2)c1)C1CC1 [Example 274, N-cyclopropyl-N-(3-(4-(cyclopropylamino)quinazolin-6-yl)benzyl)benzamide]	0.86	–
O=C(c1ccccn1)N(Cc1cccc(-c2ccc3ncnc(NC4CC4)c3c2)c1)C1CC1 [Example 275, N-cyclopropyl-N-(3-(4-(cyclopropylamino)quinazolin-6-yl)benzyl) picolinamide]	1.38	–
N#CCC(=O)N(Cc1cc(-c2ccc3ncnc(NC4CC4)c3c2)ccc1F)C1CC1 [Example 277, 2-cyano-N-cyclopropyl-N-(5-(4-(cyclopropylamino)quinazolin-6-yl)-2-fluorobenzyl)acetamide]	0.04	–
O=C1CCCC(=O)N1Cc1cc(-c2ccc3ncnc(NC4CC4)c3c2)ccc1F [Example 278, 1-(5-(4-(cyclopropylamino)quinazolin-6-yl)-2-fluorobenzyl)piperidine-2,6-dione]	0.35	–
CC(=O)N(Cc1cc(-c2ccc3ncnc(NC4CC4)c3c2)ccc1F)C(C)(C)C [Example 279, N-tert-butyl-N-(5-(4-(cyclopropylamino)quinazolin-6-yl)-2-fluorobenzyl)acetamide]	9.42	–
N#CCC(=O)N(Cc1cc(-c2ccc3ncnc(NC4CC4)c3c2)ccc1F)C1CC1 [Example 281, 2-cyano-N-cyclopropyl-N-(5-(4-(cyclopropylamino)quinazolin-6-yl)-2-fluorobenzyl)acetamide hydrochloride]	0.03	–
O=C(CC(F)(F)F)N(Cc1cc(-c2ccc3ncnc(NC4CC4)c3c2)ccc1F)C1CC1 [Example 282, N-cyclopropyl-N-(5-(4-(cyclopropylamino)quinazolin-6-yl)-2-fluorobenzyl)-3,3,3-trifluoropropanamide]	0.05	–
O=C(CCl)N(Cc1cc(-c2ccc3ncnc(NC4CC4)c3c2)ccc1F)C1CC1 [Example 283, 2-chloro-N-cyclopropyl-N-(5-(4-(cyclopropylamino)quinazolin-6-yl)-2-fluorobenzyl)acetamide]	0.29	–
CCCCNc1ncnc2ccc(-c3cccc(CN4C(=O)CCC4=O)c3)cc12 [Example 286, 1-(3-(4-(butylamino)quinazolin-6-yl)benzyl)pyrrolidine-2,5-dione hydrochloride]	0.39	–
O=C1CCC(=O)N1Cc1cccc(-c2ccc3ncnc(NC4CCCC4)c3c2)c1 [Example 287, 1-(3-(4-(cyclopentylamino)quinazolin-6-yl)benzyl)pyrrolidine-2,5-dione hydrochloride]	0.06	–
O=C1CCC(=O)N1Cc1cccc(-c2ccc3nc(NCc4ccccc4)nc(NC4CC4)c3c2)c1 [Example 291, 1-(3-(2-(benzylamino)-4-(cyclopropylamino)quinazolin-6-yl)benzyl)pyrrolidine-2,5-dione]	–	49
c1cc(CN2CCc3ccccc32)cc(-c2ccc3ncnc(NC4CC4)c3c2)c1 [Example 292, N-cyclopropyl-6-(3-(indolin-1-ylmethyl)phenyl)quinazoline-4-amine]	–	95
c1cc(CNC2CC2)cc(-c2ccc3ncnc(NC4CC4)c3c2)c1 [Example 294, N-cyclopropyl-6-(3-((cyclopropylamino)methyl)-phenyl)quinazoline-4-amine]	8.67	–
CC(C)(C)OC(=O)NCc1cccc(-c2ccc3ncnc(NC4CC4)c3c2)c1 [Example 295, tert-butyl 3-(4-(cyclopropylamino)quinazolin-6-yl)benzylcarbamate]	–	0
COc1ccc(-c2ccc3ncnc(NC4CC4)c3c2)cc1CNC1CC1 [Example 298, N-cyclopropyl-6-(3-((cyclopropylamino)methyl)-4-methoxyphenyl)quinazoline-4-amine]	10.8	–
Fc1ccc(-c2ccc3ncnc(NC4CC4)c3c2)cc1CNC1CC1 [Example 299, N-cyclopropyl-6-(3-((cyclopropylamino)methyl)-4-fluorophenyl)quinazoline-4-amine]	2.01	–
